Reference: patent US20230220047A1, “PEPTIDES FOR TREATMENT OF SEPSIS AND CANCER” (NORWEGIAN UNIVERSITY OF SCIENCE AND TECHNOLOGY (NTNU), priority 2020, published 2023)

Legend:
primary human monocytes = assay: LDH cell viability in primary human monocytes; type: cell-based; details: compared to control peptides or P7-Pen
TLR7 = assay: qPCR of R837-induced TLR7-mediated cytokine expression in human monocytes; type: cell-based; details: 15 μM, R837 1 μg/ml
Procedure: Cells were pre-treated with 15 μM peptides for 30 min, followed by the addition of LPS (100 ng/ml) (A), R837 (1 μg/ml) (B) or CL075 (1 μg/ml) for increasing lengths of time.
As previously shown, P7-Pen inhibits TLR8-mediated IFNβ expression in human monocytes, without significant effect on the expression of pro-inflammatory cytokines. Human cells express one more endosomal RNA sensor in addition to TLR8: TLR7, which uses similar signaling pathways to induce cytokine expression as the TLR8 receptor. To investigate the effect of P7-Pen on TLR7-mediated signaling, human monocytes were stimulated with imiquimod (R837), an imidazoquinoline amine analog to guanosine, which activates only TLR7, not TLR8 (Lee et al., PNAS 100(11): 6646-6651 (2003)). […] TNF and IL-1β expression were not induced in monocytes by the R837 TLR7 agonist even in control treated cells (FIG. 18C).

TLR8 = assay: Primary human macrophages stimulated with CL075: cytokine mRNA, Western blot, IRAK precipitations; type: cell-based; details: TLR8-stimulated cells, 15 μM, CL075 3 μg/ml
Procedure: (§1) Primary human macrophages (PBMC derived, differentiated in media with 10% human serum and M-CSF 20 ng/ml, 7 days) were stimulated with K12 LPS (100 ng/ml), FSL-1 (100 ng/ml) or CL075 (3 μg/ml). […] (B) qPCR for mRNA expression of IFNβ, IL-6, TNF and IL-1β, average for three biological replicates, error bars ±SD.
(§2) Primary human macrophages (7 days) were pre-treated with Pen or P7-Pen (15 μM) for 30 min before addition of LPS (100 ng/ml), FSL-1 (100 ng/ml) or CL075 (3 μg/ml). A: Protein expression in lysates for input control. B,C: Precipitations were performed using sheep anti-IRAK4 (B) or anti-IRAK1 (C) polyclonal antibodies covalently bound to magnetic beads.

S. aureus particles = assay: Whole blood assay, S. aureus particle stimulation; type: cell-based, human; details: 20 μM, 4 h
Procedure: Whole blood samples from healthy donors were pre-treated with 20 μM peptides for 1 h then stimulated with TLR ligands for 4 h before plasma collection. Results are for at least 6 donors. The Wilcoxon matched-pairs signed rank test was used for statistical analysis between 2 groups in Prizm 8.2.1. In each graph, circles indicate whole blood pre-treated with water, squares indicate blood pre-treated with control peptide (average for treatment with Pen and C3-Pen), and triangles indicate pre-treatment with P7-Pen.
To evaluate the effect of peptides in an ex vivo system, a human whole blood model was used. Peripheral venous blood was drawn from 6 healthy donors into sterile polypropylene tubes (Thermo Scientific™ Nunc™ Biobanking and Cell Culture Cryogenic Tubes) containing the anti-coagulant Lepirudin (Refludan®; Celgene). Peptide solutions were made by diluting peptide stocks in DPBS (Dulbecco's Phosphate Buffered Saline with MgCl2 and CaCl2; Sigma-Aldrich) to obtain a final concentration of 140 μM. Peptide solution or DPBS was distributed in equal volume (50 μL) to 1.8 mL sterile polypropylene tubes (Thermo Scientific™Nunc™ Biobanking and Cell Culture Cryogenic Tubes). 250 μL whole blood was then added to the 1.8 mL tubes containing peptide solution or DPBS, and incubated at 37° C. under constant rotation for 1 h (concentration of peptides for pre-incubation: 23.3 μM). […]

TLR4 = assay: Western blot of LPS signalling in THP-1 cells and primary human monocytes; type: cell-based
Procedure: Protein pellets were dissolved by heating protein pellets for 10 min at 95° C. in buffer containing 4 M urea, 1 SDS (Sigma) and NuPAGE® LDS Sample Buffer (4×) (Thermo Fisher Scientific). Otherwise, lysates were made using 1× RIPA lysis buffer (150 mM NaCl, 50 mM TrisHCl (pH 7.5), 1% Triton X100, 5 mM EDTA, protease inhibitors, phosphatase inhibitors). For Western blot analysis we used pre-cast protein gels NuPAGE™ Novex™ and iBlot Transfer Stacks iBlot Gel Transfer Device (Thermo Fisher Scientific). Proteins were transferred to the membrane by dry-blotting using iBlot® 2 NC Regular/Mini Stacks (Life Technologies) in the iBlot 2 Dry Blotting System (Life Technologies). After secondary antibody incubation, membranes were washed and incubated with HRP substrate solution (SuperSignal™ West Femto Maximum Sensitivity Substrate (Thermo Fisher Scientific)). Images were taken using Odyssey® Fc (LI-CORE). Quantification graphs were generated by the analysis of signal intensities for protein bands (protein of interest and endogenous loading control—β-tubulin from the same membrane) using Odyssey software (LI-CORE). Data were normalised to the expression levels of β-tubulin and presented as a relative fold change to the control sample.
Further, we tested the effect of P7-Pen on phosphorylation of p38 MAPK, IκBα degradation and modification of IRAK1 in human macrophages (THP-1 cells) and primary human monocytes. P7-Pen inhibited LPS-mediated phosphorylation of p38 MAPK (FIG. 24A) and inhibited IRAK1 ubiquitination/phosphorylation (visualised as band shift to higher molecular weight) in primary monocytes (FIG. 24B).

TLR2 = assay: Primary human macrophages stimulated with FSL-1: cytokine mRNA, Western blot, IRAK precipitations; type: cell-based; details: primary human macrophages (data not shown)
Procedure: as §1, §2
The effect of P7-Pen on TLR2-mediated pro-inflammatory cytokine expression was investigated.

## Ac-ITVYASVTLTGRRRRRRRRRRR-NH2 [Peptide P7-Arg11]
Primary human monocytes
  basal toxicity: higher basal toxicity

## Ac-ITVYASVTLTGRQIKIWFQNRRMKWKK-NH2 [Peptide P7-Pen]
TLR7
  TLR7-mediated IFNβ mRNA expression: inhibits
  TLR7-mediated IL-6 expression: delayed activation
TLR8
  IRAK1 and IRAK4 recruitment to MyD88 at an early time point: inhibitory effect
  late recruitment of IRAKs or phosphorylation of p38 MAPKs: no effect
S. aureus particles
  S. aureus-mediated IFNβ secretion: significantly downregulated
  S. aureus-mediated TNF, IL-6 and IL-1β pro-inflammatory cytokine secretion: significantly decreased
TLR4; THP-1 cells
  LPS-mediated phosphorylation of p38 MAPK: inhibited
TLR4; primary monocytes, LPS
  IRAK1 ubiquitination/phosphorylation: inhibited
TLR2
  expression of pro-inflammatory cytokines induced by TLR2/6 agonist FSL-1: no effect
